Data set [1] deals with Vascular endothelial growth factor receptor 3 (Homo sapiens) (UniProt P35916). Put plainly: Inhibition of human VEGFR3 at 1 uM using poly[Glu:Tyr] (4:1) as substrate in presence of [gamma-33P]ATP relative to control.
The next data set deals with Cricetinae. The data set is described as follows: Displacement of [125I]2-iodomelatonin from hamster MT3 receptor at 10 uM measured after 60 mins by scintillation counting method. Background: In a radioligand displacement assay an active substance lowers the binding of a labelled ligand.
Data set [2] relates to Mus musculus. The data set is described as follows: Antiinflammatory activity TNBS-induced mouse model of colitis assessed as decrease in colitis score at 7.5 to 145 mg/kg, po administered twice daily via gavage pretreated for 2 days followed by TNBS stimulation on day 3 and subsequent compound dosing from day 3 to 6 measured post-last dose by histological analysis. Format: functional, organism-based.

Data set [3] in a line: AUC in Sprague-Dawley rat at 2 mg/kg, po by LC/MS/MS analysis. Format: ADME, organism-based. The note with it: in vivo.
Data set [4] can be described thus: Solubility of the compound in FaSSIF measured after 4 hrs. Format: physicochemical.
The nature of data set [5]: AUC in Sprague-Dawley rat assessed as 2-((4-(Benzo[d]thiazol-5-ylamino)-6-(tert-butylsulfonyl)quinazolin-7-yl)oxy)ethanol level at 2 mg/kg, po by LC/MS/MS analysis. Format: ADME, organism-based. The settings on record: in vivo.
Data set [6] is described as follows: Drug uptake in po dosed Sprague-Dawley rat systemic circulation by LC/MS/MS analysis. The format is ADME, organism-based. The settings on record: in vivo.
Data set [7] is described as follows: Prodrug conversion in Sprague-Dawley rat hepatic portal vein assessed as 2-((4-(Benzo[d]thiazol-5-ylamino)-6-(tert-butylsulfonyl)quinazolin-7-yl)oxy)ethanol formation. The format is ADME. The settings on record: in vivo.
The target of data set [8] is T1, Voltage-gated inwardly rectifying potassium channel KCNH2 (Homo sapiens, UniProt Q12809). Put plainly: Inhibition of human ERG (1159 residues) expressed in CHOK1 cells at 7.3 uM at -80 mV holding potential measured after 5 mins by QPatch electrophysiology method. The format is cell-based. In general terms: Patch clamp records ionic current or voltage across a cell membrane.
T1 sequence (Q12809 whole entry): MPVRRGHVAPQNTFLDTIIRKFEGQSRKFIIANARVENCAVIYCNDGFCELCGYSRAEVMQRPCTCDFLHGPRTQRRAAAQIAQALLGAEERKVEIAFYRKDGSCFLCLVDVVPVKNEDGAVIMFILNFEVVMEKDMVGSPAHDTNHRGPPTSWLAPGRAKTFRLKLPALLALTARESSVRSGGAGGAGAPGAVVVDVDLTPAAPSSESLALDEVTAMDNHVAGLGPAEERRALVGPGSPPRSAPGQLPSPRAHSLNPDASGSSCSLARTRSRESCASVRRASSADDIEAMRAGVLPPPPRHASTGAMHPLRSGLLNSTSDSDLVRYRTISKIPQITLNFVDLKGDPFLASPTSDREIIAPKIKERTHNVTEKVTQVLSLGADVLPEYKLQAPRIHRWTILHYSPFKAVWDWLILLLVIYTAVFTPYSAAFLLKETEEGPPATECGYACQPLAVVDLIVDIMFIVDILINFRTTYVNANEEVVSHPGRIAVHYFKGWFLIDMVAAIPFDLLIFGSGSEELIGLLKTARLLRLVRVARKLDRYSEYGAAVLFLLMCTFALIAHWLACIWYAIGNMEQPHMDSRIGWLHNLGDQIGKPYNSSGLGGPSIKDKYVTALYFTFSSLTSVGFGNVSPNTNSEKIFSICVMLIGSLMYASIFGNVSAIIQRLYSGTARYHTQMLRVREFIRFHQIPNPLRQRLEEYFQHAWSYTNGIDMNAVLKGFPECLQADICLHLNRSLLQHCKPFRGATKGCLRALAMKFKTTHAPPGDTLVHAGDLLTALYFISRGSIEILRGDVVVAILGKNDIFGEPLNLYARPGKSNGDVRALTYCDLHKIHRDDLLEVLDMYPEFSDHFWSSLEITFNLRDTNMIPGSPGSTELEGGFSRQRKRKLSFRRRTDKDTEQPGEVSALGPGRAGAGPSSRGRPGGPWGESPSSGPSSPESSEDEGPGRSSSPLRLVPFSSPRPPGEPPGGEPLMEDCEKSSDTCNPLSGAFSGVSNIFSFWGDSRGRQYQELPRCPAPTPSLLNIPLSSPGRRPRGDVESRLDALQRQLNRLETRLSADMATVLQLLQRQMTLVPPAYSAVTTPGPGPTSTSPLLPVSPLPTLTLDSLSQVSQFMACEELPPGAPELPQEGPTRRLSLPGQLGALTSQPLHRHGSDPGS

Data set [9] concerns the target T2, Cytochrome P450 3A4 (Homo sapiens, UniProt P08684). The data set is described as follows: Inhibition of CYP3A4 (unknown origin) at 126 nM. The note with it: 0.126 µM. The format is ADME.
The target in data set [10] is T2, Cytochrome P450 3A4. Put plainly: Time dependent inhibition of CYP3A4 (unknown origin). The format is ADME.
The next data set deals with CYP3A4 (Homo sapiens, UniProt P08684). The data set is described as follows: Ratio of IC50 for time dependent inhibition of CYP3A4 (unknown origin) in presence of NADPH to IC50 for time dependent inhibition of CYP3A4 (unknown origin) in absence of NADPH. The note with it: read-out: Ratio IC50.
Chain of CYP3A4 (P08684 whole entry): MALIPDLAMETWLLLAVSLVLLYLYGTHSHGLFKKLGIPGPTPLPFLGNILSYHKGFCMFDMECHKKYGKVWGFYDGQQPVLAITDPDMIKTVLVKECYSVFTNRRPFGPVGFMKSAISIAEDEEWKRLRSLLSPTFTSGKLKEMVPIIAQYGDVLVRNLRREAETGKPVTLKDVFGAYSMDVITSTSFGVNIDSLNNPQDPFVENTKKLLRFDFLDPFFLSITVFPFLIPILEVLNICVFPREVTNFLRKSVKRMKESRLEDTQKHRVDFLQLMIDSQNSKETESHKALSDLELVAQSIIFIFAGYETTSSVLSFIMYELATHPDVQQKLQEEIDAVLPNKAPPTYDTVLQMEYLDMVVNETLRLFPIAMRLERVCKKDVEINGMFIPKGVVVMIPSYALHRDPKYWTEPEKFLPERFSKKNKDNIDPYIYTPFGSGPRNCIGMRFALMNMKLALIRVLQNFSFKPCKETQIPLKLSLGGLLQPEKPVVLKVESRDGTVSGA
Data set [11] in a line: (§1) Inhibition of NOD2/TLR2 in human PBMC assessed as reduction in MDP/Pam2CSK4-induced TNFalpha production preincubated for 30 mins followed by MDP/Pam2CSK4 stimulation and measured after 6 hrs by immunoassay.
The species entered for data set [12] is Homo sapiens. Described as §1.
The species entered for data set [13] is Homo sapiens. Put plainly: Inhibition of NOD2/TLR2 in human PBMC assessed as reduction in MDP/Pam2CSK4-induced IL6 production preincubated for 30 mins followed by MDP/Pam2CSK4 stimulation and measured after 6 hrs by immunoassay.
For data set [14], the species on record is Homo sapiens. The data set is described as follows: Inhibition of NOD2/TLR4 in human PBMC assessed as reduction in MDP/LPS-induced IL6 production preincubated for 30 mins followed by […] and measured after 6 hrs by immunoassay.
The species named for data set [15] is Homo sapiens. The data set is described as follows: Inhibition of NOD2/TLR5 in human PBMC assessed as reduction in MDP/flagellin-induced IL6 production preincubated for 30 mins followed by […] and measured after 6 hrs by immunoassay.
Data set [16] is filed under the species Homo sapiens. The data set is described as follows: Inhibition of NOD2/IL1R in human PBMC assessed as reduction in MDP/Il1alpha-induced IL6 production preincubated for 30 mins followed by […] and measured after 6 hrs by immunoassay.
For data set [17], the species on record is Homo sapiens. Put plainly: Inhibition of NOD2/TLR4 in human PBMC assessed as reduction in MDP/LPS-induced TNFalpha production preincubated for 30 mins followed by […] and measured after 6 hrs by immunoassay.
The species entered for data set [18] is Homo sapiens. Put plainly: Inhibition of NOD2/TLR5 in human PBMC assessed as reduction in MDP/flagellin-induced TNFalpha production preincubated for 30 mins followed by […] and measured after 6 hrs by immunoassay.
The species entered for data set [19] is Homo sapiens. The data set is described as follows: Inhibition of NOD2/IL1R in human PBMC assessed as reduction in MDP/Il1alpha-induced TNFalpha production preincubated for 30 mins followed by […] and measured after 6 hrs by immunoassay.
Data set [20] in a line: Solubility of the compound in FaSSIF. Format: physicochemical. The settings on record: simulated gi fluid.
Data set [21] can be described thus: Solubility of the compound in FeSSIF. The format is physicochemical. The note with it: simulated gi fluid.
The target of data set [22] is T1, Voltage-gated inwardly rectifying potassium channel KCNH2. Put plainly: Inhibition of human ERG (1159 residues) expressed in CHOK1 cells at -80 mV holding potential measured after 5 mins by QPatch electrophysiology method. Format: cell-based.
For data set [23], the target named is T3, Receptor-interacting serine/threonine-protein kinase 2 (Homo sapiens, UniProt O43353). The data set is described as follows: Inhibition of fluorescent-labelled ligand binding to human RIP2K preincubated for 10 mins followed by fluorescent-labelled ligand addition and measured after 10 mins by fluorescence polarization assay. In general terms: In fluorescence polarisation assays a small probe gives low polarisation when free and higher when bound to something large.
T3 sequence (O43353 whole entry): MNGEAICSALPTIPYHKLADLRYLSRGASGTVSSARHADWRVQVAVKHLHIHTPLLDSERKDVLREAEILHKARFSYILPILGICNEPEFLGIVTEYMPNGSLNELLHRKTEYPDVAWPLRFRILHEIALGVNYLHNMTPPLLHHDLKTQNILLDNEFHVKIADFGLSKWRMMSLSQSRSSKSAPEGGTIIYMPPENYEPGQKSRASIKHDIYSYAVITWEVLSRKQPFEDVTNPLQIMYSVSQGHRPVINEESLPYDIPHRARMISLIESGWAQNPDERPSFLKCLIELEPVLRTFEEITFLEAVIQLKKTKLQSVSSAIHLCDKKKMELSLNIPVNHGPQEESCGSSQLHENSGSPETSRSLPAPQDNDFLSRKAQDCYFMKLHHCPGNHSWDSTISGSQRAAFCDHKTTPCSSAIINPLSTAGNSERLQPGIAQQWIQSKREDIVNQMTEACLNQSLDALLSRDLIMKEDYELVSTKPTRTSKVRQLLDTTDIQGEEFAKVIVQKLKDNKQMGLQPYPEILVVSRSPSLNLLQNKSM

Data set [24] has as its target T3, Receptor-interacting serine/threonine-protein kinase 2. The data set is described as follows: Inhibition of RIPK2 in human whole blood assessed as reduction in MDP-induced TNFalpha production preincubated for 30 mins followed by MDP-stimulation and measured after 6 hrs by immunoassay. Format: tissue-based.
The subject of data set [25] is Mus musculus. The data set is described as follows: Antiinflammatory activity TNBS-induced mouse model of colitis assessed as decrease in colitis score at 1.5 mg/kg, po administered twice daily via gavage pretreated for 2 days followed by TNBS stimulation on day 3 and subsequent compound dosing from day 3 to 6 measured post-last dose by histological analysis. The format is functional, organism-based.

The subject of data set [26] is Intestinal mucosa. The data set is described as follows: Antiinflammatory activity in crohn's disease patient derived inflamed intestinal mucosa assessed as reduction in IL1beta production at 1 uM measured after overnight incubation by immunoassay. Format: functional, tissue-based. The settings on record: Homo sapiens.
In data set [27] the test system is Intestinal mucosa. The data set is described as follows: Antiinflammatory activity in crohn's disease patient derived inflamed intestinal mucosa assessed as reduction in IL6 production at 1 uM measured after overnight incubation by immunoassay. The format is functional, tissue-based. The settings on record: Homo sapiens.
The subject of data set [28] is Intestinal mucosa. Put plainly: Antiinflammatory activity in ulcerative colitis patient derived inflamed intestinal mucosa assessed as reduction in IL1beta production at 1 uM measured after overnight incubation by immunoassay. The settings on record: Homo sapiens. Format: functional, tissue-based.
Data set [29] relates to Intestinal mucosa. The data set is described as follows: Antiinflammatory activity in ulcerative colitis patient derived inflamed intestinal mucosa assessed as reduction in IL6 production at 1 uM measured after overnight incubation by immunoassay. Format: functional, tissue-based. The settings on record: Homo sapiens.

The structures appear in SMILES notation. In brackets after ≈: the same amount, converted by molar mass. Activity calls are given as the source filed them. The calls are words filed in the database; no cut-off is given here.

T2 sequence (P08684 whole entry): as the sequence (P08684 whole entry) above
Chain of Vascular endothelial growth factor receptor 3 (Homo sapiens) (P35916 whole entry): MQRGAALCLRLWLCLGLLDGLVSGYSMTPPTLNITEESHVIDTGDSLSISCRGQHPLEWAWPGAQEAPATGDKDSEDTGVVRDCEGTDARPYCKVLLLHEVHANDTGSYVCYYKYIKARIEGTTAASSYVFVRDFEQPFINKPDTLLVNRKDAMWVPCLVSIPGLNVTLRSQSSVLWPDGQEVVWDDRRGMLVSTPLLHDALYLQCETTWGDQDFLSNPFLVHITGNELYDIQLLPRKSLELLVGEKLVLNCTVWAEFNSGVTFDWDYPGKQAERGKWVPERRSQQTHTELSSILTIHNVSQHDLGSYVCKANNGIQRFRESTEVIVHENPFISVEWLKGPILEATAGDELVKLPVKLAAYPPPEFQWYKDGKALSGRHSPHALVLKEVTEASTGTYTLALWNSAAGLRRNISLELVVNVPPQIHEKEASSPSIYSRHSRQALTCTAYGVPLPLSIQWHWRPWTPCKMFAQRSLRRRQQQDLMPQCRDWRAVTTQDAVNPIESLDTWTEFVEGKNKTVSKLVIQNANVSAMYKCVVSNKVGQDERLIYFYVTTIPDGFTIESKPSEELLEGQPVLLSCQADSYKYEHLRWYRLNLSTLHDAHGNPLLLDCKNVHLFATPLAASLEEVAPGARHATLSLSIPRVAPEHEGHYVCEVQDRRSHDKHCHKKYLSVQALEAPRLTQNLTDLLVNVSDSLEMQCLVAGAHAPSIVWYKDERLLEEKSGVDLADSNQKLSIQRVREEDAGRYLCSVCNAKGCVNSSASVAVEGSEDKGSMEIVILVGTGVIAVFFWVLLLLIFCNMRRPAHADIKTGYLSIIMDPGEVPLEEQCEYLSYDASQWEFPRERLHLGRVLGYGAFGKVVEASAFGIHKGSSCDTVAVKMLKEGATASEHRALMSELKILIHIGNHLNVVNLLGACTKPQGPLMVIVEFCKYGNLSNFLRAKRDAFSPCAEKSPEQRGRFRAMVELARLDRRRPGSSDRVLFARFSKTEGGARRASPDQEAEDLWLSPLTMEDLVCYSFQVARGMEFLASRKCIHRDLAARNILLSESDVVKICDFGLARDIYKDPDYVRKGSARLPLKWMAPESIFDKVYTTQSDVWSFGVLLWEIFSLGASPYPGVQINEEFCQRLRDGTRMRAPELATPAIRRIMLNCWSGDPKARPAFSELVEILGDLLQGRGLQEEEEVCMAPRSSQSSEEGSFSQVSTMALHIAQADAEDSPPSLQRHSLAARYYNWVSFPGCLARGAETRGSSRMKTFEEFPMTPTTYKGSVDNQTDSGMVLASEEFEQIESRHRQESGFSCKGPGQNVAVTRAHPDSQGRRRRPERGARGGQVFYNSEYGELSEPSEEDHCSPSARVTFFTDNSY

Take `CC(C)(C)S(=O)(=O)c1cc2c(Nc3ccc4scnc4c3)ncnc2cc1OCCOP(=O)(O)O`: the inhibition (usually the relative decrease from the control value, in per cent) in [1] is greater than 90%. Also, the inhibition entry with Cricetinae was “Active”. Besides, the outcome in the data set with Mus musculus [2] was Active.

On to `CN(C)C(=O)OCCOc1cc2ncnc(Nc3ccc4scnc4c3)c2cc1S(=O)(=O)C(C)(C)C`, for which the AUC in [3] and in [5] was 10 ng·h/mL throughout. The amount in solution in [4] (solubility at 4 h) came to 12 µg/mL (≈ 22.7 µM). The Drug uptake result in data set [6] is recorded as “Not Active”.

In the case of `CC(C)(C)S(=O)(=O)c1cc2c(Nc3ccc4scnc4c3)ncnc2cc1OCCOS(=O)(=O)[O-].[Na+]`, the concentration in solution in data set [4] (solubility at 4 h) came to 2460 µg/mL. Also, in data set [6], the Drug uptake result is given as “Not Active”.

`CC(C)[C@H](N)C(=O)OCCOc1cc2ncnc(Nc3ccc4scnc4c3)c2cc1S(=O)(=O)C(C)(C)C`: the AUC (commonly concentration integrated over time) in data set [5] is 730 ng·h/mL. The Drug uptake result in [6] was “Not Active”. Also, in [7], the Drug metabolism entry is recorded as “Metabolite_Detected”. Also, the “inhibition (INH)” value (in [8]; at Cytochrome P450 3A4 [9]; on Cytochrome P450 3A4 [10]) was “Active” in each case. For the same compound, the IC50 shift at CYP3A4 amounted to 2.9.

On to `CC(C)S(=O)(=O)c1ccc2nccc(Nc3n[nH]c4ccc(F)cc34)c2c1`, for which the IC50 (usually the point on the concentration scale where inhibition reaches its midpoint) in [11] was 25 nM. Further, the inhibition result in the data set filed under Homo sapiens [12] is “Dose-dependent effect”. The inhibition result in the data set filed under Homo sapiens [13], in the data set listed under Homo sapiens [14], in the data set listed under Homo sapiens [15], in the data set filed under Homo sapiens [16], in the data set listed under Homo sapiens [17] and in the data set filed under Homo sapiens [18] was “Active” in each case. Also, in the data set listed under Homo sapiens [19], the inhibition result was “Active”.

Take `CC(C)(C)S(=O)(=O)c1cc2c(Nc3ccc4scnc4c3)ncnc2cc1OCCOP(=O)([O-])[O-].[Na+].[Na+]`: the solubility result in [20] and in [21] was “Soluble” throughout.

With `COc1cc2ncnc(Nc3ccc4scnc4c3)c2cc1S(=O)(=O)C(C)(C)C`, the figures for the IC50 in [22], in data set [23] and in data set [24] were greater than 30000 nM, 4 nM and 374 nM, respectively.

`CC(C)(C)S(=O)(=O)c1cc2c(Nc3ccc4scnc4c3)ncnc2cc1OCCOP(=O)(O)O.Cl`: the solubility entry in data set [20] and in data set [21] was “Soluble” throughout.

`C[C@]12C=CC(=O)C=C1CC[C@@H]1[C@@H]2[C@@H](O)C[C@@]2(C)[C@H]1CC[C@]2(O)C(=O)CO`: the outcome in the data set with Mus musculus [25], in the data set with Intestinal mucosa [26], in the data set on Intestinal mucosa [27], in the data set on Intestinal mucosa [28] and in the data set on Intestinal mucosa [29] was Active.

For the compound `CC(C)[C@H](N)C(=O)OCCOc1cc2ncnc(Nc3ccc4scnc4c3)c2cc1S(=O)(=O)C(C)(C)C.Cl.Cl`, in data set [4], the concentration in solution (solubility at 4 h) was 690 µg/mL.
